Test results taken from US7833532B2, “Immunogenic lipopeptides comprising T-helper and cytotoxic T lymphocyte (CTL) epitopes” (The Council of The Queensland Institute of Medical Research, priority 2002, dated 2010).

System: D1 cells
Assay: Maturation of D1 dendritic cells (surface MHC class II, flow cytometry)
Format: cell-based, BALB/c mouse
Conditions: overnight incubation, 0.45 nmoles/mL; […]

## ALNNRFQIKGVELKSKTYQRTRALV [[Th]-Lys-[CTL]]
  maturation of D1 cells (percentage expressing high levels of surface MHC class II): ≤ 26%
